Data on eight compounds can be found in patent publication US11053242B2, “[9,10-dimethoxy-3-(2-methylpropyl)-1H,2H,3H,4H,6H,7H,11BH-pyrido-[2,1-a]isoquinolin-2-yl]methanol and compounds, compositions and methods relating thereto” (Neurocrine Biosciences, Inc., priority 2015, dated 2021).

Series [1] concerns the target VMAT2 (human platelet homogenate) (Homo sapiens (Human), UniProt Q05940). The series can be described thus: Human VMAT2 Ki, slightly modified competition binding procedure (Table 11).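 Note: competition binding with 90 min incubation at 25 °C, after which filter-retained radioligand was measured by scintillation counting.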 The note with it: 10 nM 3H-dihydrotetrabenazine.
Protocol: Following incubation at 25° C. for 90 minutes, bound radioligand was collected by rapid filtration onto GF/B glass fiber filters using a Unifilter-96 Harvester (PerkinElmer). Filter plates were pre-treated with 0.1% polyethylenimine and allowed to dry overnight, and following harvesting the filter plates were washed with 800 d VMAT2 binding buffer. Bound radioligand was quantified by scintillation counting using a Topcount NXT (PerkinElmer).
Series [2] in a line: In vitro human intestinal S9 hydrolysis assay (formation of compound 1-1). The settings on record: human intestinal S9, 1 uM, 37° C., up to 60 minutes.

Sequence of VMAT2 (human platelet homogenate) (Q05940 whole entry): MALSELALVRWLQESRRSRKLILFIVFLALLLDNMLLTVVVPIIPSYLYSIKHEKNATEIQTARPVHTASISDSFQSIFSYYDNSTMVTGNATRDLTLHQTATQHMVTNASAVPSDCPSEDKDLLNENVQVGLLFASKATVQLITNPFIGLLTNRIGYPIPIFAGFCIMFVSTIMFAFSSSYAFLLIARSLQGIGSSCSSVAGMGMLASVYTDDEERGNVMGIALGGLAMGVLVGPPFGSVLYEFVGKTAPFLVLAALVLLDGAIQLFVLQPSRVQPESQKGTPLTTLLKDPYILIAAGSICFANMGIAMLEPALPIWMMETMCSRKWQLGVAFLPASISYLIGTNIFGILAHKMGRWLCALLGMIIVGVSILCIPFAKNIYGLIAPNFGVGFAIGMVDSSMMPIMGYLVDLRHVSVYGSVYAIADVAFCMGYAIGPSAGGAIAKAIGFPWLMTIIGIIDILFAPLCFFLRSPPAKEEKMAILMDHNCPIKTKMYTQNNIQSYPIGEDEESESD

The Ki is the equilibrium dissociation constant of an inhibitor or competing ligand from its target. Take `COc1cc2c(cc1OC)[C@H]1C[C@@H](COC(=O)NCCCC(=O)O)[C@H](CC(C)C)CN1CC2` [Compound 5-3, 4-[({[(2R,3S,11bR)-9,10-dimethoxy-3-(2-methylpropyl)-1H,2H,3H,4H,6H,7H,11bH-pyrido[2,1-a]isoquinolin-2-yl]methoxy}carbonyl)amino]butanoic acid]: the Ki in series [1] is more than 0.5 µM. Further, in series [2], the “S9 Assay (ability to form compound 1-1)” value is “+”.

`COc1cc2c(cc1OC)[C@H]1C[C@@H](COC(=O)N3CCOC(CN(C)C)C3)[C@H](CC(C)C)CN1CC2` (stereo partly drawn) [Compound 5-4, [(2R,3S,11bR)-9,10-dimethoxy-3-(2-methylpropyl)-1H,2H,3H,4H,6H,7H,11bH-pyrido[2,1-a]isoquinolin-2-yl]methyl 2-[(dimethylamino)methyl]morpholine-4-carboxylate] gave a Ki in series [1] of less than 0.01 µM. Also, the “S9 Assay (ability to form compound 1-1)” value in series [2] is reported as “+”.

In the case of `COc1cc2c(cc1OC)[C@H]1C[C@@H](COC(=O)NC3(C(=O)O)CC3)[C@H](CC(C)C)CN1CC2` [Compound 5-5, 1-[({[(2R,3S,11bR)-9,10-dimethoxy-3-(2-methylpropyl)-1H,2H,3H,4H,6H,7H,11bH-pyrido[2,1-a]isoquinolin-2-yl]methoxy}carbonyl)amino]cyclopropane-1-carboxylic acid], the Ki in series [1] was 0.01 to 0.5 µM. Also, the “S9 Assay (ability to form compound 1-1)” value in series [2] was “+”.

In series [1], `COc1cc2c(cc1OC)[C@H]1C[C@@H](COC(=O)N3CCOC(CC(=O)O)C3)[C@H](CC(C)C)CN1CC2` (stereo partly drawn) [Compound 5-6, 2-[4-({[(2R,3S,11bR)-9,10-dimethoxy-3-(2-methylpropyl)-1H,2H,3H,4H,6H,7H,11bH-pyrido[2,1-a]isoquinolin-2-yl]methoxy}carbonyl)morpholin-2-yl]acetic acid] registered a Ki of more than 0.5 µM. Also, the “S9 Assay (ability to form compound 1-1)” value in series [2] is “+”.

`COc1cc2c(cc1OC)[C@H]1C[C@@H](COC(=O)N[C@H]3[C@@H](C(=O)O)[C@H]4C=C[C@@H]3C4)[C@H](CC(C)C)CN1CC2` [Compound 5-9, (1R,2S,3R,4S)-3-[({[(2R,3S,11bR)-9,10-dimethoxy-3-(2-methylpropyl)-1H,2H,3H,4H,6H,7H,11bH-pyrido[2,1-a]isoquinolin-2-yl]methoxy}carbonyl)amino]bicyclo[2.2.1]hept-5-ene-2-carboxylic acid] showed a Ki in series [1] of more than 0.5 µM. Also, the “S9 Assay (ability to form compound 1-1)” value in series [2] is on record as “+”.

`COc1cc2c(cc1OC)[C@H]1C[C@@H](COC(=O)NCC(O)C(=O)O)[C@H](CC(C)C)CN1CC2` (stereo partly drawn) [Compound 5-11, 3-[({[(2R,3S,11bR)-9,10-dimethoxy-3-(2-methylpropyl)-1H,2H,3H,4H,6H,7H,11bH-pyrido[2,1-a]isoquinolin-2-yl]methoxy}carbonyl)amino]-2-hydroxypropanoic acid] yielded a Ki in series [1] of 0.01 to 0.5 µM. Further, the “S9 Assay (ability to form compound 1-1)” value in series [2] is listed as “++”.

Turning to `COc1cc2c(cc1OC)[C@H]1C[C@@H](COC(=O)N3CCCC(C(=O)O)C3)[C@H](CC(C)C)CN1CC2` (stereo partly drawn) [Compound 5-14, 1-({[(2R,3S,11bR)-9,10-dimethoxy-3-(2-methylpropyl)-1H,2H,3H,4H,6H,7H,11bH-pyrido[2,1-a]isoquinolin-2-yl]methoxy}carbonyl)piperidine-3-carboxylic acid], in series [1], the Ki is more than 0.5 µM. The “S9 Assay (ability to form compound 1-1)” value in series [2] is “+”.

On to `COc1cc2c(cc1OC)[C@H]1C[C@@H](COC(=O)N(C)[C@H](C)C(=O)O)[C@H](CC(C)C)CN1CC2` [Compound 5-17, (2R)-2-[({[(2R,3S,11bR)-9,10-dimethoxy-3-(2-methylpropyl)-1H,2H,3H,4H,6H,7H,11bH-pyrido[2,1-a]isoquinolin-2-yl]methoxy}carbonyl)(methyl)amino]propanoic acid], for which the Ki in series [1] lay within 0.01 to 0.5 µM. Also, the “S9 Assay (ability to form compound 1-1)” value in series [2] is “+”.
